ChEMBL document CHEMBL3991601, “The target landscape of clinical kinase drugs” (Science, 2017)
Structures can show the parent of a compound that is named as a salt. The source made the active and inactive calls. On the calls: in the data inactive means no Kd found up to 30 µM.

Key:
Misshapen-like kinase 1 = Misshapen-like kinase 1 (Homo sapiens, UniProt Q8N4C8)
[1] = target: T1, Dual specificity protein kinase TTK (Homo sapiens, UniProt P33981)
T1 sequence (P33981 whole entry): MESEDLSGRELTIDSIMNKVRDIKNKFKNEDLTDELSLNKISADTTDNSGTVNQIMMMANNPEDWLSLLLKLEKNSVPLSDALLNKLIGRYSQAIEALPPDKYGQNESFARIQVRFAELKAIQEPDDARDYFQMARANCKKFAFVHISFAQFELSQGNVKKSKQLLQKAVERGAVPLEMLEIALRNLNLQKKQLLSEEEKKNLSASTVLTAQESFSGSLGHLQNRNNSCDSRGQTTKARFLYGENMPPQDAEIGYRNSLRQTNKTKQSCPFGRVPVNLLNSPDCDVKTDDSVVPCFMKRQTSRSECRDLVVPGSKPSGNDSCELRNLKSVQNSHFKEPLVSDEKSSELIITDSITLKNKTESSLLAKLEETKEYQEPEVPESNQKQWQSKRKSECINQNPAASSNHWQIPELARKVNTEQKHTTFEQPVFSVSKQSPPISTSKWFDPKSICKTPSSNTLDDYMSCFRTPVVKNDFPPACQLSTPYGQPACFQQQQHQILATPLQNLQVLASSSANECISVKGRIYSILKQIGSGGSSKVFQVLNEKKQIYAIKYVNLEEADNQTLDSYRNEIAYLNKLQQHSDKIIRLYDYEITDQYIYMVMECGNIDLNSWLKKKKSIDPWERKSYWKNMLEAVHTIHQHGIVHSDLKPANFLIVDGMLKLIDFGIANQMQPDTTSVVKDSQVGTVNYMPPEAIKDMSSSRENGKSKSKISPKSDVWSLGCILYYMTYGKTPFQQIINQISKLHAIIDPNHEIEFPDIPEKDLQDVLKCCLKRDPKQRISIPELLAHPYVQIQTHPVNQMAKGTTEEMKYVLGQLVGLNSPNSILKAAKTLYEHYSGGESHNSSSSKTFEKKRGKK

[2] = target: Dual specificity protein kinase CLK3 (Homo sapiens, UniProt P49761); assay type: subcellular, K-562, COLO 205, SK-N-BE(2) and MV-4-11, Cell lysate; conditions: read-out: Kd apparent
[3] = target: T2, Long-chain-fatty-acid--CoA ligase 5 (Homo sapiens, UniProt Q9ULC5)
T2 sequence (Q9ULC5 whole entry): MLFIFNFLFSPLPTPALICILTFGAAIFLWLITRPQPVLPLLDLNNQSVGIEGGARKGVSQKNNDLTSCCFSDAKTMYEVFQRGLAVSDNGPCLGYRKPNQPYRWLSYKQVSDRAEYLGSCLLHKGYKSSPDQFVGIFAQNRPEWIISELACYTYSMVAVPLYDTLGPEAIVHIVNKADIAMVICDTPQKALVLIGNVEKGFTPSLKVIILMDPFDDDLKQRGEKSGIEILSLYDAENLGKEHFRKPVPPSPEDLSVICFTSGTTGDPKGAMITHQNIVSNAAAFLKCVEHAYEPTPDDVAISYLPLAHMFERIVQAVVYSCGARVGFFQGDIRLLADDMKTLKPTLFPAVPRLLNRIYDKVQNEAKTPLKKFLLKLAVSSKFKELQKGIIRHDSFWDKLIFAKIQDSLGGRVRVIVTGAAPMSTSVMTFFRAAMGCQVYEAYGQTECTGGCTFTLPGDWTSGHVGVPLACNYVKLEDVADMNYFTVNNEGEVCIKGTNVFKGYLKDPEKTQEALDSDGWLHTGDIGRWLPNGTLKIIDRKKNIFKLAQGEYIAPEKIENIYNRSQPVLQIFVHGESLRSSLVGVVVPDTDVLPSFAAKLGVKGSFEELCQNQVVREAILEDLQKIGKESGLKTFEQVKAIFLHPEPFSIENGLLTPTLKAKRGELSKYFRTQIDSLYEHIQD

[4] = target: T3, Tyrosine-protein kinase Mer (Homo sapiens, UniProt Q12866)
T3 sequence (Q12866 whole entry): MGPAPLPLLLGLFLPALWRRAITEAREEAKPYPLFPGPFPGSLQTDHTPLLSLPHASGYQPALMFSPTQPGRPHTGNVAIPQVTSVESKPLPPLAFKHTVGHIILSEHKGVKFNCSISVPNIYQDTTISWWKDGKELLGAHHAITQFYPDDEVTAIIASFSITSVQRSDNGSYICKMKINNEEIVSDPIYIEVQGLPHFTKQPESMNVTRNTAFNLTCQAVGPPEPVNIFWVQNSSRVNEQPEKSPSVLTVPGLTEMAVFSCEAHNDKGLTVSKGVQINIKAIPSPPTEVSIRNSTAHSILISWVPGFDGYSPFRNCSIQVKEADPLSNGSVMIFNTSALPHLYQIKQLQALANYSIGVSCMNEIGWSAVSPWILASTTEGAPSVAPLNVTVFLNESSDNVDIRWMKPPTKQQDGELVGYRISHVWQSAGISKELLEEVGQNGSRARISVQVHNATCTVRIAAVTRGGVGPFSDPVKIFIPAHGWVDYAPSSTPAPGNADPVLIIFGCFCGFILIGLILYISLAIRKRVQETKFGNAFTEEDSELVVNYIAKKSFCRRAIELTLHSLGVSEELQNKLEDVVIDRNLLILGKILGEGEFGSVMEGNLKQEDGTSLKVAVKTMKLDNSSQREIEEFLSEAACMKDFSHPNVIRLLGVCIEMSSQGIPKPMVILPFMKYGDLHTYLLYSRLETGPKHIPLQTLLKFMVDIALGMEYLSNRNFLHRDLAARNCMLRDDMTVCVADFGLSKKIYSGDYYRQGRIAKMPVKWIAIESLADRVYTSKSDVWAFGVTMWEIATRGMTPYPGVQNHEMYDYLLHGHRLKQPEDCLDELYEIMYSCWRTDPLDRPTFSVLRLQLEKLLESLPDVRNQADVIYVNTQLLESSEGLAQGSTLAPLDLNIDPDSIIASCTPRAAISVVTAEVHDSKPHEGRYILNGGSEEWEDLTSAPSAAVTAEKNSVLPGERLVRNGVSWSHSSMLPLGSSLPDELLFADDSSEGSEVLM

[5] = target: Dual specificity protein kinase CLK4 (Homo sapiens, UniProt Q9HAZ1)
[6] = target: Uncharacterized aarF domain-containing protein kinase 5 (Homo sapiens, UniProt Q3MIX3)
Chain of Uncharacterized aarF domain-containing protein kinase 5 (Q3MIX3 whole entry, the tested form may be a part): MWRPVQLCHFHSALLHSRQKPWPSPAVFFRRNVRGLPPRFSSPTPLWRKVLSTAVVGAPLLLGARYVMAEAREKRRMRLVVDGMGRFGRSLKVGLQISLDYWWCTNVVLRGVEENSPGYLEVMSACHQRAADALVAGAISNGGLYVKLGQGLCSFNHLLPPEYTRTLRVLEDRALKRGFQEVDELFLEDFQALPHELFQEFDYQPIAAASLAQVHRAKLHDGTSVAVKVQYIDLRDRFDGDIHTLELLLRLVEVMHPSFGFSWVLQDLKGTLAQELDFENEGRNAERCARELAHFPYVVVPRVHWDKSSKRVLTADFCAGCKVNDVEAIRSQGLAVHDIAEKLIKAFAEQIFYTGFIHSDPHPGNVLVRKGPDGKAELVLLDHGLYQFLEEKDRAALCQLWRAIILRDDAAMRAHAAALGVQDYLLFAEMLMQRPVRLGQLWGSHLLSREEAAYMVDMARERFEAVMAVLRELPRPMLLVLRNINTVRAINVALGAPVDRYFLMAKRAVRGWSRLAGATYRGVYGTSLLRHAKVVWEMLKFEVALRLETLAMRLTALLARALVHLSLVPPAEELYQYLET

Chain of Dual specificity protein kinase CLK4 (Q9HAZ1 whole entry, the tested form may be a part): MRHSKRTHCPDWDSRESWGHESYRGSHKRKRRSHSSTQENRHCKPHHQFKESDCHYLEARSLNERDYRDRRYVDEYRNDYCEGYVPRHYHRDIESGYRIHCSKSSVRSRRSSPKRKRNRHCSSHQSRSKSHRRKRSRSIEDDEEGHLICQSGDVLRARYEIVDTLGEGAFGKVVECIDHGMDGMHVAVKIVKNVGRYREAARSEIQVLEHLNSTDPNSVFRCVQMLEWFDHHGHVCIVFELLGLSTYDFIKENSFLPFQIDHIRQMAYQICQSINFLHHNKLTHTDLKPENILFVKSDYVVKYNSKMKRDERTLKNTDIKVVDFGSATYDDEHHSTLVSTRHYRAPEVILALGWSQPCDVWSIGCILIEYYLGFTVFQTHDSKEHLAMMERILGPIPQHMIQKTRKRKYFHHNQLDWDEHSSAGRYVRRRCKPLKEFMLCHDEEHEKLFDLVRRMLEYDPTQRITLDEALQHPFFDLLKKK
Chain of Misshapen-like kinase 1 (Q8N4C8 whole entry): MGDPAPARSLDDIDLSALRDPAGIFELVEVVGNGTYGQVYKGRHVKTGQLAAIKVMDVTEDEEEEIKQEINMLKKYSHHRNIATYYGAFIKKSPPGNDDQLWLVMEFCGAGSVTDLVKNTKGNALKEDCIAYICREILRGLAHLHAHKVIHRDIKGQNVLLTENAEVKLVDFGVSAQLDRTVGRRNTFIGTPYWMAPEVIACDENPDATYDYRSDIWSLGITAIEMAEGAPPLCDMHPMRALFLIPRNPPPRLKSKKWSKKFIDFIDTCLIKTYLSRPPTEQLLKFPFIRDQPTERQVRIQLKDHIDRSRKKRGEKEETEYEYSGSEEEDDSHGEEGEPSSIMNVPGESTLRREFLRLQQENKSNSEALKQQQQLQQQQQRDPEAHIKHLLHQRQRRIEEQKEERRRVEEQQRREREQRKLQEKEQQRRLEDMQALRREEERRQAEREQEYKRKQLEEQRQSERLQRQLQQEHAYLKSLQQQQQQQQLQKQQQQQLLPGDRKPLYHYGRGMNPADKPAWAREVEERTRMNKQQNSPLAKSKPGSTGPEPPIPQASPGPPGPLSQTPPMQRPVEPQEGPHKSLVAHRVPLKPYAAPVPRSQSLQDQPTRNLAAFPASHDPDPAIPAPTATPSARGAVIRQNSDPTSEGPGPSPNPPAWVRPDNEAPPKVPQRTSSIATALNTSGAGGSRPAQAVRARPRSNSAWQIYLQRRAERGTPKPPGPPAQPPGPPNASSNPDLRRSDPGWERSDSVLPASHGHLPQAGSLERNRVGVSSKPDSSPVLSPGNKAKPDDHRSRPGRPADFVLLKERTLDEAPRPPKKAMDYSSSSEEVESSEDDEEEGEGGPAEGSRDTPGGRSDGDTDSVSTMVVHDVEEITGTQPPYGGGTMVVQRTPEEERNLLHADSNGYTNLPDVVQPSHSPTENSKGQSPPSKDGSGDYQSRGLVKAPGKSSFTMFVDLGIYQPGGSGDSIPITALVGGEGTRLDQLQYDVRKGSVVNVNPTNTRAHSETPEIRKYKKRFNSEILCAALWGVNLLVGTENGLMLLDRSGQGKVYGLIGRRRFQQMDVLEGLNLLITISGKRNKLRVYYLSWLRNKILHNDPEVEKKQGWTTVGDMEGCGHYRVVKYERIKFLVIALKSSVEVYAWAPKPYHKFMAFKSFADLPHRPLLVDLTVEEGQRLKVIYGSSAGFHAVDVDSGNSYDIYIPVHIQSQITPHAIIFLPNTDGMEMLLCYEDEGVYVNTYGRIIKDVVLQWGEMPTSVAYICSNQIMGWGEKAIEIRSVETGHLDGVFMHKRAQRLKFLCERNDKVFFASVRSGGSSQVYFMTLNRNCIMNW
Chain of Dual specificity protein kinase CLK3 (P49761 whole entry): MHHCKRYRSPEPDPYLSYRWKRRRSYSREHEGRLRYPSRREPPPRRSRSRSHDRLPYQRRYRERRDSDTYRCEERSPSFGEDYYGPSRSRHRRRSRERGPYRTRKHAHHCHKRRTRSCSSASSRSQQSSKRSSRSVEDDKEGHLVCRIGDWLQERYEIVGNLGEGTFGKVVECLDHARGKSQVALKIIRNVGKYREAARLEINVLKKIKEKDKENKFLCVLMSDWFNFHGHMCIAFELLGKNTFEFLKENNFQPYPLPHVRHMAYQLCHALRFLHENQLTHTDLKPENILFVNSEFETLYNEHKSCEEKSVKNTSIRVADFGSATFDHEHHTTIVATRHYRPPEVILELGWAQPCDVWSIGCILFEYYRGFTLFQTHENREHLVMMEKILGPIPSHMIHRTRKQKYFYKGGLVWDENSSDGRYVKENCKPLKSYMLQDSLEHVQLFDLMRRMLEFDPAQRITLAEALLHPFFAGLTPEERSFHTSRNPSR

| SMILES | Kd (Misshapen-like kinase 1) | Kd [1] | Kd [2] | Kd [3] | Kd [4] | Kd [5] | Kd [6] |
| --- | --- | --- | --- | --- | --- | --- | --- |
| C[C@H]1CNCCCN1S(=O)(=O)c1cccc2cncc(F)c12 | > 30 µM (inactive) | > 30 µM (inactive) |  |  |  |  |  |
| CCNC(=O)C#Cc1ccc2c(c1)NC(=O)/C2=C(\Nc1ccc(CN(C)C)cc1)c1ccccc1 | > 30 µM (inactive) |  | > 30 µM (inactive) | > 30 µM (inactive) |  |  |  |
| C=CC(=O)N1CCC[C@H](n2c(=O)n(-c3ccc(Oc4ccccc4)cc3)c3c(N)ncnc32)C1 |  |  | > 30 µM (inactive) | > 30 µM (inactive) | > 30 µM (inactive) | > 30 µM (inactive) |  |
| COCc1c(-c2ccc(NC(=O)Nc3cc(C(F)(F)F)ccc3F)c(F)c2)c2c(N)ncnn2c1CN1CCOCC1 |  |  |  | > 30 µM (inactive) |  | > 30 µM (inactive) |  |
| COc1cc(Nc2ncc3c(n2)-c2ccc(Cl)cc2C(c2c(F)cccc2OC)=NC3)ccc1C(=O)O [ALISERTIB] |  | > 30 µM (inactive) |  | > 30 µM (inactive) |  |  | > 30 µM (inactive) |
| Cc1nc(NC(=O)N2CCC[C@H]2C(N)=O)sc1-c1ccnc(C(C)(C)C(F)(F)F)c1 [ALPELISIB] | > 30 µM (inactive) |  |  |  |  | > 30 µM (inactive) |  |
| O=C(Nc1c[nH]nc1-c1nc2cc(CN3CCOCC3)ccc2[nH]1)NC1CC1 [AT-9283] | > 30 µM (inactive) | > 30 µM (inactive) | > 30 µM (inactive) | > 30 µM (inactive) |  |  | > 30 µM (inactive) |
| C=CC(=O)Nc1cc2c(Nc3ccc(F)c(Cl)c3)ncnc2cc1C#CC(C)(C)N1CCN(C)CC1 [AV-412 FREE BASE] |  |  |  | > 30 µM (inactive) |  | > 30 µM (inactive) | > 30 µM (inactive) |
| CNC(=O)c1ccccc1Sc1ccc2c(/C=C/c3ccccn3)n[nH]c2c1 [AXITINIB] |  |  |  | > 30 µM (inactive) |  |  |  |
| COc1cc([C@@H]2c3cc4c(cc3[C@H](O)[C@H]3COC(=O)[C@@H]23)OCO4)cc(OC)c1OC [AXL-1717] |  | > 30 µM (inactive) |  | > 30 µM (inactive) |  |  |  |
| NC(=O)Nc1cc(-c2cccc(F)c2)sc1C(=O)N[C@H]1CCCNC1 [AZD-7762] |  | > 30 µM (inactive) | > 30 µM (inactive) | > 30 µM (inactive) |  | > 30 µM (inactive) | > 30 µM (inactive) |
| CCS(=O)(=O)N1CCN(c2ccc(Nc3ncc(C(N)=O)c(NC4CC4)n3)cc2)CC1 [Cerdulatinib Hydrochloride] | > 30 µM (inactive) |  |  | > 30 µM (inactive) |  | > 30 µM (inactive) | > 30 µM (inactive) |
| Cc1nc2cc(-n3ncc(C(=O)c4cc5ccccc5[nH]4)c3N)ccc2[nH]1 [FGFR INHIBITOR DEBIO 1347] |  |  |  | > 30 µM (inactive) |  |  |  |
| Cc1cccc(-c2nn3c(c2-c2ccnc4ccc(C(N)=O)cc24)CCC3)n1 [GALUNISERTIB] | 0.018 µM | > 30 µM (inactive) |  | > 30 µM (inactive) |  | > 30 µM (inactive) |  |
| CNC(=O)c1cccc2cc(Oc3ccnc4cc(OCC5(N)CC5)c(OC)cc34)ccc12 [LUCITANIB] | > 30 µM (inactive) | > 30 µM (inactive) |  |  |  |  |  |
| Cc1[nH]c(/C=C2\C(=O)Nc3ccccc32)c(C)c1CCC(=O)O [ORANTINIB] |  | > 30 µM (inactive) | > 30 µM (inactive) | > 30 µM (inactive) |  |  | > 30 µM (inactive) |
| CN1CCN(CCOc2cc(OC3CCOCC3)c3c(Nc4c(Cl)ccc5c4OCO5)ncnc3c2)CC1 [SARACATINIB] |  | > 30 µM (inactive) | > 30 µM (inactive) | > 30 µM (inactive) |  |  |  |
| Cn1ncc(Cl)c1-c1cc(C(=O)N[C@H](CN)Cc2ccc(F)c(F)c2)oc1Cl [UPROSERTIB] |  | > 30 µM (inactive) |  |  |  |  |  |
| CN1C/C=C/CCOc2cccc(c2)-c2ccnc(n2)Nc2cccc(c2)C1 [ZOTIRACICLIB] |  |  |  | > 30 µM (inactive) |  |  |  |

The next lines start with the values.

| Kd (Misshapen-like kinase 1) | Kd [1] | Kd [2] | Kd [3] | Kd [4] | Kd [5] | Kd [6] | SMILES |
| --- | --- | --- | --- | --- | --- | --- | --- |
| > 30 µM (inactive) | > 30 µM (inactive) | > 30 µM (inactive) |  |  |  | > 30 µM (inactive) | Cc1cc(C(=O)NOCCO)c(Nc2ccc(I)cc2F)n(C)c1=O [AZD-8330] |
|  | > 30 µM (inactive) | > 30 µM (inactive) | > 30 µM (inactive) |  | > 30 µM (inactive) | > 30 µM (inactive) | CCn1c(C(=O)N(C2CC2)C2CC2)cc2c3c(ncn3C)c(Nc3cc(C)n(C)n3)nc21 [BMS-911543] |
| > 30 µM (inactive) | > 30 µM (inactive) | > 30 µM (inactive) | > 30 µM (inactive) |  | > 30 µM (inactive) | > 30 µM (inactive) | C#Cc1cccc(Nc2ncnc3cc(OC)c(OCCCCCCC(=O)NO)cc23)c1 [CUDC-101] |
|  |  |  | > 30 µM (inactive) |  |  | > 30 µM (inactive) | C[C@@H](Oc1cc(-n2cnc3ccc(CN4CCN(C)CC4)cc32)sc1C(N)=O)c1ccccc1C(F)(F)F [GSK-461364] |
|  | > 30 µM (inactive) | > 30 µM (inactive) |  |  | > 30 µM (inactive) | > 30 µM (inactive) | CCn1cc(-c2ccnc3[nH]c(-c4cccc(CN(C)C)c4)cc23)c(-c2ccc(NC(=O)N(C)C)cc2)n1 [GSK-1070916] |
|  |  | > 30 µM (inactive) |  |  | > 30 µM (inactive) | > 30 µM (inactive) | COc1ccc(S(=O)(=O)N(C(C)=O)c2ccccc2/C=C/c2cc[n+]([O-])cc2)cc1 [HMN-214] |
| > 30 µM (inactive) |  |  |  |  |  |  | CN(C[C@@H]1COCCO1)S(=O)(=O)Nc1ccc2ccc3ncc(-c4cnn(C)c4)cc3c(=O)c2c1 [MK-2461] |
|  |  | > 30 µM (inactive) | > 30 µM (inactive) |  | > 30 µM (inactive) | > 30 µM (inactive) | Cn1cc(-c2cnc3ccc4ccc(CS(=O)(=O)NCc5ccccn5)cc4c(=O)c3c2)cn1 [MK-8033] |
|  |  |  | > 30 µM (inactive) |  |  | > 30 µM (inactive) | O=C(NOCCO)c1cc(CN2OCCCC2=O)c(F)c(F)c1Nc1ccc(I)cc1F [RO-4987655] |
| > 30 µM (inactive) |  | > 30 µM (inactive) | > 30 µM (inactive) |  | > 30 µM (inactive) |  | Cn1cc(-c2cnn3c(N)c(Br)c([C@@H]4CCCNC4)nc23)cn1 [SCH-900776] |
|  | > 30 µM (inactive) |  | > 30 µM (inactive) |  | > 30 µM (inactive) |  | CC(C)c1cc(CNc2nc(Nc3cc(C4CC4)[nH]n3)cc(N3CCN(C)CC3)n2)on1 [XL-228] |
